Where only a bound is given, the exact number is not on record here.

For assay [1], the target named is T1, TEM-1 (Escherichia coli, UniProt P62593).
T1 construct: made in house; host or cells: E. coli
The assay is described as follows: β-lactamase inhibitory activity, determination of IC50 (nitrocefin hydrolysis). The class given is biochemical.

Assay [2] concerns the target T2, SHV-1 (Klebsiella pneumoniae, UniProt P0AD64).
T2 construct: made in house; host or cells: E. coli
Described as above. The class given is biochemical.

Assay [3] concerns the target T3, CTX-M-15 (Escherichia coli, UniProt Q9EXV5).
T3 construct: made in house; host or cells: E. coli
The description is as above. The conditions noted are these: class (A); nitrocefin 200 μM, 30 min pre-incubation; read-out: IC50 β-lactamase CTX-M-15. The class given is biochemical.

Assay [4] has as its target T4, KPC-2 (Klebsiella pneumoniae, UniProt Q9F663).
T4 construct: made in house; host or cells: E. coli
The assay is described as above. Type of assay: biochemical. The conditions noted are these: class (A); nitrocefin 200 μM, 30 min pre-incubation; read-out: IC50 β-lactamase KPC-2.

For assay [5], the target named is T5, OXA-1 (Escherichia coli, UniProt P13661).
T5 construct: made in house; host or cells: E. coli
Described as above. The class given is biochemical. As to conditions: class (D); nitrocefin 200 μM, 30 min pre-incubation; read-out: IC50 β-lactamase OXA-1.

Assay [6] has as its target T6, OXA-11 (Pseudomonas aeruginosa, UniProt Q06778).
T6 construct: made in house; host or cells: E. coli
Described as above. The class given is biochemical.

Assay [7] has as its target T7, OXA-15 (Pseudomonas aeruginosa, UniProt Q51574).
T7 construct: made in house; host or cells: E. coli
The assay is described as follows: biochemical.

Assay [8] deals with T8, OXA-48 (Klebsiella pneumoniae, UniProt Q6XEC0).
T8 construct: made in house; host or cells: E. coli
The experiment in a line: β-lactamase inhibitory activity, determination of IC50 (nitrocefin hydrolysis). Type of assay: biochemical. As to conditions: class (D); nitrocefin 200 μM, 30 min pre-incubation; read-out: IC50 β-lactamase OXA-48.

Assay [9] has as its system E. cloacae P99 (AmpC). The assay is described as follows: MIC of compounds alone, broth microdilution. The class given is cell-based. The conditions noted are these: Enterobacter cloacae; strain P99 (E. cloacae); read-out: MIC compounds of the invention alone. As to the method: (§1) Method 2: MIC of Compounds and Synergy with Ceftazidime Against Bacterial Isolates (Table 2 and 3)
(§2) Compounds of the present invention were assessed against genotyped bacterial strains alone or in combination with the β-lactam ceftazidime (CAZ). In the assays, MICs of said compounds, or of ceftazidime at fixed concentrations of said compounds were determined by the broth microdilution method according to the Clinical Laboratory Standards Institute (CLSI-M7-A7). Briefly, compounds alone according to the invention were prepared in DMSO and spotted (2 μL each) on sterile polystyrene plates (Corning, 3788). Compounds and ceftazidime dilutions were prepared in DMSO and spotted (1 μL each) on sterile polystyrene plates (Corning, 3788). Log phase bacterial suspensions were adjusted to a final density of 5×10^5 cfu/mL in cation-adjusted Mueller-Hinton broth (Becton-Dickinson) and added to each well (98 μL). Microplates were incubated for 16-20 h at 35° C. in ambient air. The MIC of the compounds was defined as the lowest concentration of said compounds that prevented bacterial growth as read by visual inspection. The MIC of ceftazidime at each compound concentration was defined as the lowest concentration of ceftazidime that prevented bacterial growth as read by visual inspection.
On the technique in general: Dilution methods test growth across graded concentrations, often in twofold steps.

In assay [10] the test system is E. coli 131119 (TEM-1, OXA-48). The assay is described as follows: MIC of compounds alone, broth microdilution. Type of assay: cell-based. As to conditions: Escherichia coli; strain 131119 (E. coli); read-out: MIC compounds of the invention alone. As to the method:
as §1, §2

Assay [11] concerns E. coli RGN238 (OXA-1). The assay is described as follows: MIC of compounds alone, broth microdilution. Type of assay: cell-based. As to conditions: Escherichia coli; strain RGN238 (E. coli); read-out: MIC compounds of the invention alone. On the procedure: as §1, §2
Assay [12] deals with K. pneumoniae 6299 (TEM-1, SHV-11, OXA-163). The experiment in a line: MIC of compounds alone, broth microdilution. The class given is cell-based. As to conditions: Klebsiella pneumoniae; strain 6299 (K. pneumoniae); read-out: MIC compounds of the invention alone. On the procedure:
as §1, §2

The test system of assay [13] is K. pneumoniae BAA-1898 (TEM-1, SHV-11, SHV-12, KPC-2). The assay is described as follows: MIC of compounds alone, broth microdilution. The class given is cell-based. As to conditions: Klebsiella pneumoniae, BAA1898; strain BAA-1898 (K. pneumoniae); read-out: MIC compounds of the invention alone. On the procedure: as §1, §2
Assay [14] deals with P. aeruginosa CIP107051 (TEM-24). The assay is described as follows: MIC of compounds alone, broth microdilution. The class given is cell-based. As to conditions: Pseudomonas aeruginosa; strain CIP107051 (P. aeruginosa); read-out: MIC compounds of the invention alone. On the procedure: as §1, §2
In assay [15] the target is AmpC (P99) (Enterobacter cloacae, UniProt P05364). The experiment in a line: β-lactamase inhibitory activity, determination of IC50 (nitrocefin hydrolysis).
Assay [16] addresses AmpC P. aeruginosa (Pseudomonas aeruginosa, UniProt P24735). The assay is described as above.

Sequence of AmpC P. aeruginosa (P24735 27-397): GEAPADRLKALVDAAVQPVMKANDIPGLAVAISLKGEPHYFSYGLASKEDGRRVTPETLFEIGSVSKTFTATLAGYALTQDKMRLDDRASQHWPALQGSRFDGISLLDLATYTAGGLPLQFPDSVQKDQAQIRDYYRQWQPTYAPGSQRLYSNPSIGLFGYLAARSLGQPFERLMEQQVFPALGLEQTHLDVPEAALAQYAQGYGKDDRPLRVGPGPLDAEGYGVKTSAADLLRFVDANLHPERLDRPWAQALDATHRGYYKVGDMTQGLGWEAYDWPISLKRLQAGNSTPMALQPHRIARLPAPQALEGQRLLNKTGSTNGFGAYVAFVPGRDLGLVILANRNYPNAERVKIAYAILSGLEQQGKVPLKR
T8 sequence (Q6XEC0 23-265 limits assumed): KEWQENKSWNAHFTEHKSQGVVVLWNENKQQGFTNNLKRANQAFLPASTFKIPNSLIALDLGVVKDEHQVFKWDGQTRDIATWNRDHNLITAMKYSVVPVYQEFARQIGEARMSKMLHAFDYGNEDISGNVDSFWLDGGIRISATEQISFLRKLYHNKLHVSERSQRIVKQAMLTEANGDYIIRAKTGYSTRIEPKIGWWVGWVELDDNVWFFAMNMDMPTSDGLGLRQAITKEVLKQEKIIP
T5 sequence (P13661 26-276): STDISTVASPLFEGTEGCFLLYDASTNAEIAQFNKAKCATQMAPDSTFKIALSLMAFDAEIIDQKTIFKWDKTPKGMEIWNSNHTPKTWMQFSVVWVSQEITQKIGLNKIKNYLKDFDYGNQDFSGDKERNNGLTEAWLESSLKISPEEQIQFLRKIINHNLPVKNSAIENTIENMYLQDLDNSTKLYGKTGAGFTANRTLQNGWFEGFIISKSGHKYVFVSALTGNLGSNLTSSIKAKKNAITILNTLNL
Sequence of AmpC (P99) (P05364 21-381): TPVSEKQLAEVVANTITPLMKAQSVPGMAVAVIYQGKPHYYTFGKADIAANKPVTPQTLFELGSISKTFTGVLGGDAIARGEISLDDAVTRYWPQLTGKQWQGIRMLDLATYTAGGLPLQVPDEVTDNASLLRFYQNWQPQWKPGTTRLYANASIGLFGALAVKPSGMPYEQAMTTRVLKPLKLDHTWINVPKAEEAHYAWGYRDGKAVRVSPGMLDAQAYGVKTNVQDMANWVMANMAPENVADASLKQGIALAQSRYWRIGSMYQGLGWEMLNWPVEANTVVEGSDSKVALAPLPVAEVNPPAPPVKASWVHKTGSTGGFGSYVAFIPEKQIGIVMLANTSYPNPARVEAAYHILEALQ
T7 sequence (Q51574 22-275): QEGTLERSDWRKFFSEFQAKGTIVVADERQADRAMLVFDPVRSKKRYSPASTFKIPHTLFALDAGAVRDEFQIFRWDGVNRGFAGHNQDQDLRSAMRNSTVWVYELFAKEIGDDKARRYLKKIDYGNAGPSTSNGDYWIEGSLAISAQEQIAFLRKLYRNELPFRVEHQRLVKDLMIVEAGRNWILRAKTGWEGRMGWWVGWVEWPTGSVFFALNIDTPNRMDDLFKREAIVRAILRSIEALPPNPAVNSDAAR
T3 sequence (Q9EXV5 entry or part of it): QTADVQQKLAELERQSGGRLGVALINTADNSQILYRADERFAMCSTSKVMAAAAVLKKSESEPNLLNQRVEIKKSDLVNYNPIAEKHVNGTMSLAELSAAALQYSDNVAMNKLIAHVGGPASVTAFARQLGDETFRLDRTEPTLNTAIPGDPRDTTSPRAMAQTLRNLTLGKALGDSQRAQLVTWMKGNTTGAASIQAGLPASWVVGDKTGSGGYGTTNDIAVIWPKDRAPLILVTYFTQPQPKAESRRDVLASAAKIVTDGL
T6 sequence (Q06778 21-266): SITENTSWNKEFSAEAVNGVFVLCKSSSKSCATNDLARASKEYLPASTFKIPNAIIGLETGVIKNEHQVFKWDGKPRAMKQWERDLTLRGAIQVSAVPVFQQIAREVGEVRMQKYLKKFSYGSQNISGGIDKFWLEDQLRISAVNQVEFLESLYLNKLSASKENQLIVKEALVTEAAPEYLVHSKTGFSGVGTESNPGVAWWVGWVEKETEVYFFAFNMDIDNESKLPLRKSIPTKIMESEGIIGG
T1 sequence (P62593 24-286 limits assumed): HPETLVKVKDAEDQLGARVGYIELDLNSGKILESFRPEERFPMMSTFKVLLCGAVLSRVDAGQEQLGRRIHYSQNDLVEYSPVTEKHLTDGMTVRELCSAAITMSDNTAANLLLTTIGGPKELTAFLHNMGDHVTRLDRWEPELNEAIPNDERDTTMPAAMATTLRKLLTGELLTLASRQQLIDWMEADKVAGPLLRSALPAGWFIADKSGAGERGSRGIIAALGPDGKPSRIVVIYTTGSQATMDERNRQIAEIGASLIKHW
T2 sequence (P0AD64 22-286): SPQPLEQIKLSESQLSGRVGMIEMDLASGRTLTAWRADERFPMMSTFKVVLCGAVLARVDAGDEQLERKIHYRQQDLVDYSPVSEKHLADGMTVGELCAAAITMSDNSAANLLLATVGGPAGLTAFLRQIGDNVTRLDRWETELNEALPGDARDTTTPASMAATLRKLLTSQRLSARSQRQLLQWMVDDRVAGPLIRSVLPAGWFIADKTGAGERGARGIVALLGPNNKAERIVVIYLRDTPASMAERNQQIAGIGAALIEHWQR
T4 sequence (Q9F663 25-293 limits assumed): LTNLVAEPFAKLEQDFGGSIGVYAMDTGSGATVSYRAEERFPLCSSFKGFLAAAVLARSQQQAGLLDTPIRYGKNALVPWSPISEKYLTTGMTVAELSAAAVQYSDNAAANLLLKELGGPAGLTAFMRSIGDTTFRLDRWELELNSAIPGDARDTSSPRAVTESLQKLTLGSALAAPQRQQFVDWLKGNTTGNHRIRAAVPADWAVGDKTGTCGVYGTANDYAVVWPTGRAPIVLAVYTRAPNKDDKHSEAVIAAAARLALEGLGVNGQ

In the case of `O=C1N2CC(c3cnco3)=CC(C2)N1OS(=O)(=O)[O-].[Na+]` (centres unmarked) [Example 35, Sodium [3-(oxazol-5-yl)-7-oxo-1,6-diazabicyclo[3.2.1]oct-3-en-6-yl]sulfate], the IC50 (in general, the concentration needed to halve the response being measured) in assay [1] was found to be 2.3 nM; in assay [2], 8.4 nM; in [3], 0.81 nM; in assay [4] it was 8.2 nM; in assay [5], 1400 nM; in [6], 300 nM. Further, the IC50 in assay [7] was found to be 74 nM; in [8] it was 2.5 nM; in [15], 51 nM; in assay [16] it was 210 nM. The minimal inhibitory concentration (MIC) (as a rule, the smallest concentration in the dilution series that meets the test's criterion for growth inhibition) in assay [9] is 8 µg/mL; in assay [10] it was 2 µg/mL; in assay [11] it was 4 µg/mL; in [12], 8 µg/mL; in [13], 4 µg/mL; in assay [14], greater than 32 µg/mL.

Consider `O=C1N2CC(n3ccnc3)=CC(C2)N1OS(=O)(=O)[O-].[Na+]` (centres unmarked) [Example 34, Sodium [3-imidazol-1-yl-7-oxo-1,6-diazabicyclo[3.2.1]oct-3-en-6-yl]sulfate], for which the half-maximal inhibitory concentration (IC50) in assay [1] worked out at 7.2 nM; in [2], 21 nM; in assay [3], 2.7 nM; in [4], 24 nM; in assay [5], 410 nM; in assay [6] it was 650 nM. Also, the IC50 was determined as 220 nM in assay [7], 220 nM in assay [8], 59 nM in assay [15] and 500 nM in assay [16]. Besides, the minimum inhibitory concentration (MIC) in assay [9] was 8 µg/mL; in assay [10], 8 µg/mL; in assay [11], 16 µg/mL; in assay [12] it was 32 µg/mL; in assay [13], 16 µg/mL; in assay [14] it was greater than 32 µg/mL.

Take `O=C1N2CC=C(c3cccnc3)C(C2)N1OS(=O)(=O)[O-].[Na+]` (centres unmarked) [Example 9, Sodium [4-(3-pyridyl)-7-oxo-1,6-diazabicyclo[3.2.1]oct-3-en-6-yl]sulfate]: the IC50 in assay [1] came to 3.8 nM; in assay [2] it was 11 nM; in [3] it was 4.8 nM; in assay [4], 68 nM; in assay [5] it was 130 nM; in [6], 730 nM. Moreover, the IC50 in assay [7] came to 52 nM; in [8], 1.4 nM; in assay [15], 770 nM; in [16], 810 nM. For the same molecule, the MIC was greater than 32 µg/mL in [9]; 16 µg/mL in [10]; greater than 32 µg/mL in assay [11]; greater than 32 µg/mL in assay [12]; greater than 32 µg/mL in assay [13]; greater than 32 µg/mL in [14].

Take `O=C1N2CC=C(c3ccns3)C(C2)N1OS(=O)(=O)[O-].[Na+]` (centres unmarked) [Example 30, Sodium [4-(isothiazol-5-yl)-7-oxo-1,6-diazabicyclo[3.2.1]oct-3-en-6-yl] sulfate]: the 50% inhibitory concentration (IC50) in assay [1] worked out at 5.2 nM; in assay [2] it was 15 nM; in assay [3], 1.8 nM; in assay [4], 63 nM; in assay [5], 150 nM; in assay [6], 720 nM. In addition, the IC50 in assay [7] is 23 nM; in [8] it was 2.5 nM; in assay [15] it was 200 nM; in [16], 780 nM. Further, the MIC in [9] is 8 µg/mL; in [10], 4 µg/mL; in [11] it was greater than 32 µg/mL; in assay [12], greater than 32 µg/mL; in assay [13] it was greater than 32 µg/mL; in assay [14], greater than 32 µg/mL.

In the case of `Cn1cc(C2=CCN3CC2N(OS(=O)(=O)[O-])C3=O)ncc1=O.[Na+]` (centres unmarked) [Example 14, Sodium [4-(4-methyl-5-oxo-pyrazin-2-yl)-7-oxo-1,6-diazabicyclo[3.2.1]oct-3-en-6-yl] sulfate], the IC50 stood at 1.6 nM in assay [1]; 2.9 nM in assay [2]; 2.7 nM in assay [3]; 52 nM in assay [4]; 730 nM in assay [5]; 920 nM in assay [6]. Besides, the IC50 stood at 33 nM in assay [7], 1.4 nM in [8], 890 nM in [15] and 1900 nM in assay [16]. The minimum inhibitory concentration (MIC) is 8 µg/mL in [9]; 8 µg/mL in [10]; greater than 32 µg/mL in [11]; greater than 32 µg/mL in assay [12]; greater than 32 µg/mL in assay [13]; greater than 32 µg/mL in assay [14].

In the case of `Cn1ccc(C2=CCN3CC2N(OS(=O)(=O)[O-])C3=O)cc1=O.[Na+]` (centres unmarked) [Example 13, Sodium [4-(1-methyl-2-oxo-4-pyridyl)-7-oxo-1,6-diazabicyclo[3.2.1]oct-3-en-6-yl] sulfate], the IC50 in [1] worked out at 6.1 nM; in assay [2], 8.8 nM; in [3] it was 6 nM; in assay [4], 63 nM; in assay [5] it was 820 nM; in assay [6] it was 730 nM. The IC50 in assay [7] is 230 nM; in assay [8] it was 2.3 nM; in assay [15], 2800 nM; in [16], 3200 nM. Further, the minimum inhibitory concentration (MIC) in assay [9] is 16 µg/mL; in [10] it was 8 µg/mL; in [11] it was greater than 32 µg/mL; in assay [12] it was greater than 32 µg/mL; in assay [13], greater than 32 µg/mL; in assay [14], greater than 32 µg/mL.

Regarding `O=C1N2CC(c3cnoc3)=CC(C2)N1OS(=O)(=O)[O-].[Na+]` (centres unmarked) [Example 26, sodium [3-(isoxazol-4-yl)-7-oxo-1,6-diazabicyclo[3.2.1]oct-3-en-6-yl] sulfate], the IC50 was determined as 4.8 nM in [1]; 13 nM in assay [2]; 5.7 nM in assay [3]; 4.2 nM in assay [4]; 370 nM in assay [5]; 140 nM in [6]. Besides, the IC50 came to 210 nM in [7], 6.6 nM in [8], 51 nM in assay [15] and 74 nM in assay [16]. Besides, the MIC is 8 µg/mL in assay [9]; 2 µg/mL in [10]; 4 µg/mL in assay [11]; 8 µg/mL in assay [12]; 8 µg/mL in assay [13]; greater than 32 µg/mL in assay [14].

`O=C1N2CC(c3ncon3)=CC(C2)N1OS(=O)(=O)[O-].[Na+]` (centres unmarked) [Example 36, Sodium [3-(1,2,4-oxadiazol-3-yl)-7-oxo-1,6-diazabicyclo[3.2.1]oct-3-en-6-yl] sulfate]: the IC50 in assay [1] was found to be 2.3 nM; in assay [2], 16 nM; in assay [3] it was 1.1 nM; in assay [4], 39 nM; in assay [5], 2400 nM; in [6], 920 nM. The IC50 in assay [7] is 660 nM; in assay [8], 2.1 nM; in assay [15] it was 43 nM; in [16], 160 nM. Moreover, the MIC was 8 µg/mL in [9]; 1 µg/mL in [10]; 4 µg/mL in [11]; 16 µg/mL in assay [12]; 8 µg/mL in [13]; greater than 32 µg/mL in assay [14].

These data come from US10183943B2, “Heterocyclic compounds and their use in preventing or treating bacterial infections” (MUTABILIS, priority 2015, dated 2019).
